Values quoted from earlier work, collected in patent publication US20040253327A1, “Compositions and methods for reducing or controlling blood cholesterol, lipoproteins, triglycerides, and sugar and preventing or treating cardiovascular diseases” (priority 2003, published 2004).

Columns and labels:
[1] = human, in vivo

Row | patients developing gastrointestinal complaints [1] | Compound | reduction of blood triglyceride and LDL cholesterol levels [1] | triglyceride level (after 2 months of supplementation (vs. 161 mg/dl)) | reduction in triglyceride levels (supplementation for 2 months, P<0.05)
1 | Up to 30% | CN(C)C(=N)N=C(N)N [metformin] | about 10% |  | 
2 |  | chromium picolinate |  | 133 mg/dL | 17.4%
